Patent US6608057B2, “Compounds useful as reversible inhibitors of cathepsin S” (Boehringer Ingelheim Pharmaceuticals, Inc., priority 1999, dated 2003)

melting point: 83 to 85 °C
Compound: CC(C)C[C@H](NC(=O)N1CCOCC1)C(=O)N[C@@H](CCc1ccccc1)C(=O)c1oc(-c2ccccc2)nc1-c1ccccc1 [Example 5, Morpholine-4-carboxylic acid {1-(S)-[1-(S)-(2,4-diphenyloxazole-5-carbonyl)-3-phenylpropylcarbamoyl]-3-methylbutyl} amide]
